Data published in PMC5872116, “Screening of E. coli β-clamp Inhibitors Revealed that Few Inhibit Helicobacter pylori More Effectively: Structural and Functional Characterization” (Antibiotics, 2018).

Assays:
[1] = target: T1, Hpβ-clamp (Helicobacter pylori, UniProt O25242); assay: SPR surface competition with HpDNA ligase, immobilised Hpβ-clamp (qualitative); assay type: binding; settings: competitive with HpDNA ligase; HBS-EP pH 7.4, 2% DMSO
T1 construct: gene dnaN; recombinant, expressed in E. coli BL21, Ni-NTA and gel filtration purified (His-tag implied); homodimer
T1 sequence (O25242 1-374): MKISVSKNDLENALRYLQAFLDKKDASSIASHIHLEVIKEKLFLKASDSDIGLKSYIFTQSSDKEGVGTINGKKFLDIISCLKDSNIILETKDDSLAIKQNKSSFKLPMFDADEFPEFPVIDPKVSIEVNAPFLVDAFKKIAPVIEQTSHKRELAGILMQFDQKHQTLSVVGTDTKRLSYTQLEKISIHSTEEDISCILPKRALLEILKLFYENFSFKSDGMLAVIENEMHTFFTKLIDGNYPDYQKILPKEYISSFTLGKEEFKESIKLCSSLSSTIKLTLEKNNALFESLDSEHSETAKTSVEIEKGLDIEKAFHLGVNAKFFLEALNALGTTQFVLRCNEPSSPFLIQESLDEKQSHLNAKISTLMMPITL

[2] = target: T1, Hpβ-clamp; assay: co-crystal structure ([…] Å); also SPR surface competition with HpDNA ligase; assay type: binding; settings: subsite I of protein-protein interaction site; competitive with HpDNA ligase

| SMILES | SPR surface competition with HpDNA ligase, immobilised Hpβ-clamp (qualitative) [1] | co-crystal structure (1.97 Å); also SPR surface competition with HpDNA ligase [2] |
| --- | --- | --- |
| O=[N+]([O-])c1ccc2cn[nH]c2c1 [C2, 6-nitroindazole] | All five shortlisted molecules showed competitive binding to β-clamp. |  |
| C[C@H](C(=O)O)c1ccc2c(c1)[nH]c1ccc(Cl)cc12 [C3, (S)-carprofen] |  | 5FXT (Hpβ-clamp complex with carprofen, C3) |
| O=[N+]([O-])c1ccc2[nH]ccc2c1 [C4, 5-nitroindole] | All five shortlisted molecules showed competitive binding to β-clamp. |  |
